Laboratory results reported in patent USRE41998E1, “Compositions and methods of treatment of sympathetically maintained pain” (Arclon Therapeutics, Inc., priority 1990, dated 2010).
Read-outs that look alike come from different tables or passages of the source.

Columns and labels:
normal subject = system: normal subject
Description: Five normal subjects were used as controls. One subject was used to investigate the effect of clonidine on normal skin (i.e., the top of the foot). The four remaining subjects were used to assess the effect of intradermal norepinephrine and phenylephrine in normal skin.
To exclude further local anesthetic effects of clonidine, a clonidine patch was applied to the top of a normal subject's foot and sensory testing was performed prior to and 40 hours after the patch application.

healthy control subjects = experiment: Intradermal norepinephrine and phenylephrine in normal skin of control subjects; format: in vivo, human
Description: Five normal subjects were used as controls.
Effects of Intradermal Norepinephrine and Phenylephrine: In two patients, intradermal injections of the non-specific α-adrenergic agonist norepinephrine (5 μg in 10 μl normal saline) or the α-adrenergic agonist phenylephrine (10 μg in 10 μl normal saline) were made at a patch site immediately after removing the patch. […] All injection were made in a single-blinded fashion. The patients and control subjects were instructed to rate the magnitude of any evoked pain and resultant hyperalgesia on a verbal scale from 0 to 10.

patients with SMP [1] = settings: cited from earlier work; for effect on pain in patients with SMP: in vivo
patients with SMP [2] = experiment: Intradermal norepinephrine and phenylephrine in SMP patients (clonidine patch site, normal site)
Description: Effects of Intradermal Norepinephrine and Phenylephrine: In two patients, intradermal injections of the non-specific α-adrenergic agonist norepinephrine (5 μg in 10 μl normal saline) or the α-adrenergic agonist phenylephrine (10 μg in 10 μl normal saline) were made at a patch site immediately after removing the patch. Norepinephrine and phenylephrine injections were also made at control sites on the patients' normal limb and into the normal skin of 4 healthy control subjects. […] All injection were made in a single-blinded fashion. The patients and control subjects were instructed to rate the magnitude of any evoked pain and resultant hyperalgesia on a verbal scale from 0 to 10.

α1 and α2 receptors = settings: cited from earlier work
patients with SMP [3] = experiment: Intravenous phentolamine block in patients with SMP; format: in vivo, human
Description: If peripheral α-adrenergic receptors are blocked completely, skin temperature would approach core temperature. Such a blockage would produce profound hypotension and a reflex tachycardia. […] This dose ranged from 35 mg to 45 mg over a 30 minute period.
The heart rate, systolic and diastolic blood pressure changes produced by phentolamine in a typical patient were relatively mild. In the first seven patients phentolamine alone was administered.
The patient was diagnosed as having SMP and then underwent local LABSG, and the administration of phentolamine systemically by intravenous injection.
Seventeen patients received both phentolamine and LABSG. The time of maximum relief of stimulus evoked pain correlated highly with the time at which there was maximum relief of stimulus-independent pain. All pain scores were converted to percent pain relief. The peak relief of stimulus independent pain for the LABSG compares favorably to the peak relief obtained from the phentolamine block. […] Patients with less than 50% pain relief from both procedures were considered to have pain independent of SMP. There was a high correlation of the results of the two procedures (r=0.78).

[4] = in vivo; cited from earlier work

Description for patients with SMP or SIP: Patient Selection and Control Subjects: Six normotensive patients with chronic ongoing pain and cutaneous hyperalgesia to mechanical and cooling stimuli following soft tissue or nerve trauma were examined. All patients had previously undergone sympathetic blocks (i.e., local anesthetic blockade of the appropriate sympathetic ganglia) to assess the involvement of the sympathetic nerves in their pain state.
A series of 2-7 patches were applied consecutively to different sites within the hyperalgesic zone. Each patch was left in place for 2-10 days within this affected zone. Prior to, during and immediately after drug application, the following parameters were monitored: heart rate, blood pressure, ongoing pain and pain to mechanical and cold stimuli.
The scale consisted of a 100 mm line where “no pain” and “most intense pain” were indicated on the left and right ends of the scale respectively. […] The mechanical stimuli included innocuous brushing with a camel's hair brush and innocuous pressure from the 206 g weight of a 13 mm diameter (i.e., 2N) brass probe. Pain thresholds to mechanical stimuli were determined in the area within and surrounding the patch sites using calibrated von Frey filaments. The cooling stimulus consisted of small drops of acetone lightly placed onto the patient's skin. […] 3) Tactile sensibility: To rule out local anesthetic effects, the detection (touch) thresholds were determined in the area within the surrounding selected patch sites using calibrated von Frey filaments. In addition, the patient's ability to distinguish the blunt from the sharp ends of a pin was also assessed. The patients were instructed to close their eyes during the hyperalgesia and von Frey threshold testing procedures.

Structure (SMILES): Clc1cccc(Cl)c1N=C1NCCN1 [clonidine]
- detection or pain threshold to mechanical stimuli in a normal subject (normal subject; Example 2, test for local anesthetic effect): did not alter
- pain and detection threshold to von Frey filaments (normal subject; top of normal subject's foot, 40 hours after patch application): Neither the pain nor detection threshold to von Frey filaments were affected
- mechanical detection thresholds inside and outside the patch site (patients with SMP or SIP; Case 1): identical
- pain threshold to von Frey filaments within the patch site (patients with SMP or SIP; Case 1): approximated the patient's ‘normal’ pain threshold
- ratings of stimulus-independent pain (patients with SMP or SIP; Case 1): not affected
- time hyperalgesia still absent after removing a patch (patients with SMP or SIP; Case 1): at least 12 hours
- Mechanical Hyperalgesia: post-clonidine (patients with SMP or SIP; Case 1, SMP, lower extremity): −
- Touch Detection Threshold: post-clonidine (patients with SMP or SIP; Case 1, SMP, pre-clonidine 4): 4 bars
- ability to distinguish sharp from blunt stimuli (patients with SMP or SIP; Case 1, after patch removal): not affected
- mechanical (brush, pressure) and cooling (acetone) stimuli at patch site (patients with SMP or SIP; Case 1, after removal of patch applied for 36 hours): detected but were not painful
- pain rating to light brushing at patch site (patients with SMP or SIP; Case 1, after removal of patch, before norepinephrine injection, untreated skin 4 out of 10): 1 out of 10
- detection thresholds (patients with SMP or SIP; Case 1, four patches (FIG. 2)): unchanged
- hyperalgesia to mechanical stimuli (patients with SMP or SIP; Case 1, four patches with quantitative sensory testing (FIG. 2)): greatly reduced and, in many cases, completely eliminated
- return of hyperalgesia (patients with SMP or SIP; Case 1, from patch application): within less than a week
- time to reduction of mechanical hyperalgesia after patch applied (patients with SMP or SIP; Case 1, noted by patient): 36 to 48 h
- Mechanical Hyperalgesia: post-clonidine (patients with SMP or SIP; Case 2, SMP, lower extremity): −
- Touch Detection Threshold: post-clonidine (patients with SMP or SIP; Case 2, SMP, pre-clonidine 1): 1 bars
- Touch Detection Threshold: post-clonidine (patients with SMP or SIP; Case 3, SMP, pre-clonidine 1.5): 1.5 bars
- reduction of ongoing pain (patients with SMP or SIP; Case 4): 50-75%
- Mechanical Hyperalgesia: post-clonidine (patients with SMP or SIP; Case 4, SMP, face): −
- Touch Detection Threshold: post-clonidine (patients with SMP or SIP; Case 4, SMP, pre-clonidine 0.5): 0.5 bars
- relief of hyperalgesia throughout entire affected zone (patients with SMP or SIP; Case 4, application to the upper lip): complete relief of hyperalgesia
- Mechanical Hyperalgesia: post-clonidine (patients with SMP or SIP; Case 5, SIP, upper extremity): +
- hyperalgesia and ongoing pain (patients with SMP or SIP; Case 5, SIP, application to palmar aspect of the hand): Neither the patient's hyperalgesia nor ongoing pain were improved
- Touch Detection Threshold: post-clonidine (patients with SMP or SIP; Case 5, SIP, pre-clonidine 1): 1 bars
- hyperalgesia to cold stimuli (patients with SMP or SIP; Case 6, SIP): not affected
- Mechanical Hyperalgesia: post-clonidine (patients with SMP or SIP; Case 6, SIP, lower extremity): +
- reduction in ongoing pain and mechanical hyperalgesia to brush stimuli (patients with SMP or SIP; Case 6, SIP, patches on dorsum of the foot): approximately 35%
- Touch Detection Threshold: post-clonidine (patients with SMP or SIP; Case 6, SIP, pre-clonidine 2): 2 bars
- overall level of stimulus-independent pain (patients with SMP or SIP; Cases 2, 3): did not report any reduction
- extent of hyperalgesia relief (patients with SMP or SIP; Cases 2, 3, zone greater than half of lower extremity): only eliminated hyperalgesia at or near the site of drug application
- alteration in blood pressure or heart rate (patients with SMP or SIP; any of the patients): No appreciable alteration
- pain or hyperalgesia (summary) (patients with SMP or SIP; cases 5 and 6, pain independent of the sympathetics): little effect on pain or hyperalgesia
- skin reaction surrounding the patch site (patients with SMP or SIP; following some patch applications, treatment discontinued in cases 1, 4): erythematous rash
- mechanical and cold hyperalgesia at the site of drug administration (summary) (patients with SMP or SIP; patients with SMP): significantly reduced mechanical and cold hyperalgesia
- side effects from clonidine patches (patients with SMP or SIP; six patients): minor
- time to reduction of pain evoked by deep pressure, light brushing and cooling stimuli (patient with SMP; after patch application): 24 to 36 h
- time to complete abolition of evoked pain (patient with SMP; following patch application): ≤ 48 h
- persistence of effect after removal of the patch (patient with SMP; human, in vivo): more than 24 hours
- adverse side effects, cardiovascular parameters (patient with SMP; same patient): no adverse side effects or changes in cardiovascular parameters
- hyperalgesia of skin surrounding the patch (patient with SMP; same patient): remained hyperalgesic
- relief of hyperalgesia in the skin underlying the patch (patient with SMP; sciatic nerve injury patient, 0.2 or 0.3 mg/day patch, 6 patches, 2-10 days each): Complete relief
- detection threshold to mechanical stimuli in the patient (patient with SMP; test for local anesthetic effect): did not alter

Structure (SMILES): NC[C@H](O)c1ccc(O)c(O)c1 [norepinephrine]
- pain and hyperalgesia after intradermal injection into the leg (healthy control subjects; four control subjects, norepinephrine 5 μg): mild, short lasting pain and no hyperalgesia
- pain or hyperalgesia in normal subjects (patients with SMP [1]; intradermal injection): does not cause pain or hyperalgesia
- effect on pain and hyperalgesia relieved by sympathectomy or sympathetic block (patients with SMP [1]; intradermal injection, patients): rekindles the pain and hyperalgesia
- pain evoked by injection at clonidine patch site (patients with SMP [2]; Case 1, intradermal 5 μg in 10 μl saline): intense, burning pain sensation
- mechanical hyperalgesia rating at the patch site (patients with SMP [2]; Case 1, twenty-five minutes after injection): 3.5 out of 10
- pain and hyperalgesia after injection into normal limb (patients with SMP [2]; Cases 1 and 4, normal limb): evoked intense pain, but did not result in hyperalgesia

Structure (SMILES): CC(COc1ccccc1)N(CCCl)Cc1ccccc1 (stereo not shown) [phenoxybenzamine]
- effect on pain in patients with SMP (patients with SMP [1]): can be effective in relieving pain
- potency in blocking α1 (postsynaptic) receptors relative to α2 receptors (α1 and α2 receptors): approximately 100 fold

Structure (SMILES): Cc1ccc(N(CC2=NCCN2)c2cccc(O)c2)cc1 [phentolamine]
- pain relief following the blocks (local anesthetic sympathetic ganglion block, i.v. phentolamine) (patients with SMP [3]; Example 3 cases 1-4 (case 2 had no phentolamine block)): 70-100%
- effect of block on pain (patients with SMP [3]; Example 3 cases 5, 6 (SIP)): not affected
- side effect: dizziness (patients with SMP [3]; IV phentolamine): 2 patients
- side effect: headache (patients with SMP [3]; IV phentolamine): 3 patients
- side effect: nasal stuffiness (patients with SMP [3]; IV phentolamine): 12 patients
- pain relief in patients with SMP (preliminary studies) (patients with SMP [3]; cumulative dose 35 mg to 45 mg over a 30 minute period): effectively relieved pain
- heart rate change (patients with SMP [3]; first seven patients, phentolamine alone): increased moderately
- time for pain to return to within 75% of baseline (patients with SMP [3]; five patients with more than 50% pain relief from phentolamine block): 2 to 7 h
- pain relief with the phentolamine block (patients with SMP [3]; one patient with 45% maximum relief with LABSG): no relief
- pulse rate change (patients with SMP [3]; patients pretreated with propranolol 1-2 mg): minimal increase
- mean pain relief (patients with SMP [3]; patients who had 50% or greater pain relief following LABSG): 75%
- reduction in pain as measured by visual analysis scores (patients with SMP [3]; person, SMP right foot, IV, accumulated dose of 25 mg over 15 minutes): 80%
- time course over which pain gradually returned (patients with SMP [3]; same patient): about three
- time pain remained at low level (patients with SMP [3]; same patient, after last phentolamine dose): about two
- patient's pain relieved (patients with SMP [3]; same patient, after two further injections each of 10 mg): over 80%
- gradual decrease in stimulus-independent pain (patients with SMP [3]; same patient, first 4 boli IV, total dose 15 mg): about 50%
- blood pressure change (patients with SMP [3]; supine, with or without propranolol): little effected
- plasma half-life [4]: approximately 20 minutes
- effect on sympathetically-maintained pain and hyperalgesia (patients with SMP [1]; intravenous administration): rapidly abolishes sympathetically-maintained pain and hyperalgesia
- potency in inhibiting α1- relative to α2-adrenergic receptors (α1 and α2 receptors): three to five

Structure (SMILES): CNC[C@H](O)c1cccc(O)c1 [phenylephrine]
- pain and hyperalgesia after injections (healthy control subjects; control subjects, phenylephrine 10 μg): Only brief, mild pain sensations and no hyperalgesia
- pain evoked at control site (volar forearm) (patients with SMP [2]; Case 4): moderate pain of shorter duration
- ongoing level of pain (patients with SMP [2]; Case 4, approximately 25 minutes after injection): increased substantially
- pain evoked by injection at clonidine patch site (patients with SMP [2]; Case 4, intradermal 10 μg in 10 μl saline, after 3 days of clonidine): intense stinging pain

Structure (SMILES): COc1cc2nc(N3CCN(C(=O)c4ccco4)CC3)nc(N)c2cc1OC [prazosin]
- effect on pain in patients with SMP (patients with SMP [1]): can be effective in relieving pain
- receptor subtype selectivity (α1 and α2 receptors): highly selective α1-blocking agent

Structure (SMILES): CC(C)NCC(O)COc1cccc2ccccc12 (stereo not shown) [propranolol]
- effect on pain when added after α-adrenergic blockade (patients with SMP [3]; 0.5 mg intravenously, five minutes after last phentolamine dose): did not add appreciably to the analgesia
- effect on pain in patients with SMP (patients with SMP [1]): little effect on SMP
